We go through one compound from patent US9028887B2, “Method improve spatial memory via pterostilbene administration” (The United States of America, as represented by the …, priority 2007, dated 2015).

The subject of assay [1] is 19-month-old male Fischer 344 rats. Nature of the assay: Morris Water Maze, working memory version, in aged rats on pterostilbene diet. It counts as in vivo, rat. As to conditions: for distance to find the platform, Trial 1 vs Trial 2: days 3 and 4; for latency to find the platform, Trial 1 vs Trial 2: days 3 and 4, ninth week. The text has this:
Forty-two 19-month-old male Fischer 344 rats were obtained from the NIA colony (Harlan Sprague Dawley, Indianapolis, Ind.). The rats were individually housed in stainless steel mesh suspended cages, provided food and water ad libitum, and maintained on a 12-hour light/dark cycle. The rats were given one week to adjust to their new environment, after which time they were weight matched and then randomly placed on one of three diets for 12-13 weeks total (n=14/group): control, low dose pterostilbene (0.004%, equivalent to 2.5 mg/kg body weight), or high dose pterostilbene (0.016%, equivalent to 10 mg/kg body weight). All animals were observed daily for clinical signs of disease.
The pterostilbene diets were prepared at Harlan Teklad (Madison, Wis.) by adding crystalline pterostilbene to the control diet, of 40 mg/kg diet, 0.004% w/w for low dose, 160 mg/kg diet, 0.016% w/w for high dose. The amount of corn in the control diet was adjusted to compensate for the added volume of the pterostilbene. The rats were maintained on either the control or pterostilbene diet for eight weeks before motor testing and nine weeks before cognitive testing at 21 months.
The Morris Water Maze (MWM) is a method to test spatial learning and memory of subjects. Developed by Richard Morris, the MWM is an age and diet sensitive learning paradigm that requires a subject to locate a hidden platform (10 cm in diameter) positioned below the surface (2 cm) of a circular pool of water (134 cm in diameter×50 cm in height, maintained at 23° C.) based on distal cues, and to remember its location from the previous trial. Accurate navigation is rewarded with escape from the water onto the platform, for which the subject uses distal cues such as posters, the experimenter, a computer, cage racks, to effectively locate. The working memory version of the MWM (Brandeis et al., 1989. Int J Neurosci. 48:29-69 Morris R., 1984. J Neurosci Methods. 11; 47-60.) was performed daily for four consecutive days during the ninth week of treatment, with a morning and an afternoon session, two trials each session, with a 10 minute inter-trial interval between the two trials. Rats were tested in a random manner, with the restriction that one subject from each group be tested in succession. At the beginning of each trial, the subject was gently immersed in the water at one of four randomized start locations. […] Once the subject reached the platform, it remained there for 15 sec (Trial 1; reference memory or acquisition trial). The subject was returned to its home cage between trials (10 min). Trial 2 (the working memory or retrieval trial) used the same platform location and start position as Trial 1. Performances were videotaped and analyzed with image tracking software (HVS Image, UK), which allows measurements of latency (sec) time to find the platform), path length (cm), and swimming speed (cm/sec; […]). A detailed description of the maze and the paradigm used is disclosed in Shukitt-Hale et al., 1998. Experimental Gerontology, 33:615-624, and incorporated herein by reference.

Assay [2] deals with striatal slices. Nature of the assay: Oxotremorine enhancement of K+-evoked dopamine release from striatal slices of diet-fed rats. It counts as in vivo, rat. The following applies: for dopamine release (oxotremorine-enhanced striatal K+-ERDA), H2O2-treated vs non-H2O2-treated: 50 μM H2O2, 500 μM oxotremorine. The source says: The muscarinic enhancement of K^+-evoked dopamine release (K^+-ERDA) from superfused striatal slices is an indicator of receptor sensitivity and striatal function and is sensitive to aging and oxidative stress as disclosed in Joseph et al., 1988. Brain Res., 454:140-8: Joseph et al., 1988. Brain Res., 454:149-55; Joseph J., et al., 1990. Brain Res., 537:40-48; Joseph et al., 1996. Free Radic. Biol. Med., 20: 821-30 and herein incorporated by reference. Additionally, muscarinic enhancement of dopamine release is sensitive to dietary supplementation as disclosed in Joseph et al., 1998. J. Neurosci., 18: 8047-8055; Joseph et al., 1999. J. Neurosci., 19: 8114-8121; Youdim et al., 2000. Nutr Neurosci., 3: 383-97; Shukitt-Hale et al., 2005. Age., 27: 49-57; Shukitt-Hale et al., 2006. Nutrition, 22: 295-302 and herein incorporated by reference. The protective capacity of the striatal tissue obtained from the control and supplemented groups were assessed by examining differences in the oxotremorine-enhancement of striatal K^+-ERDA. Dopamine release was conducted 2-3 weeks following behavioral testing on freshly dissected and cross cut (300 μm, McIlwain tissue chopper) striatal slices from subject brains that were fed a high dose, low dose and control diet. The slices were placed in small glass vials containing modified Krebs-Ringer basal release medium (BRM) that had been bubbled for 30 min with 95% O2/5% CO2 and containing 21 mM NaHCO3, 3.4 mM glucose, 1.3 mM NaH2PO4, 1 mM EGTA, 0.93 mM MgCl2, 127 mM NaCl and 2.5 mM KCl (low KCl) (pH 7.4). Half of the tissue was treated with 50 μM […] to assess the effect of diet under conditions of oxidative stress. […] Following this equilibration period, the medium was switched to one containing (in mM) KCl 30 (high KCl), CaCl2.2H2O 1.26 (in place of EGTA), NaCl 57, and 0 or 500 μM oxotremorine and then the enhancement of K^+-ERDA was assessed. Dopamine release was quantitated by HPLC coupled to electrochemical detection and expressed as pmoles/mg protein as determined by the Lowry procedure.

In assay [3] the target is T1, cyclooxygenase-2 (Homo sapiens, UniProt P35354).
T1 sequence (P35354 18-604): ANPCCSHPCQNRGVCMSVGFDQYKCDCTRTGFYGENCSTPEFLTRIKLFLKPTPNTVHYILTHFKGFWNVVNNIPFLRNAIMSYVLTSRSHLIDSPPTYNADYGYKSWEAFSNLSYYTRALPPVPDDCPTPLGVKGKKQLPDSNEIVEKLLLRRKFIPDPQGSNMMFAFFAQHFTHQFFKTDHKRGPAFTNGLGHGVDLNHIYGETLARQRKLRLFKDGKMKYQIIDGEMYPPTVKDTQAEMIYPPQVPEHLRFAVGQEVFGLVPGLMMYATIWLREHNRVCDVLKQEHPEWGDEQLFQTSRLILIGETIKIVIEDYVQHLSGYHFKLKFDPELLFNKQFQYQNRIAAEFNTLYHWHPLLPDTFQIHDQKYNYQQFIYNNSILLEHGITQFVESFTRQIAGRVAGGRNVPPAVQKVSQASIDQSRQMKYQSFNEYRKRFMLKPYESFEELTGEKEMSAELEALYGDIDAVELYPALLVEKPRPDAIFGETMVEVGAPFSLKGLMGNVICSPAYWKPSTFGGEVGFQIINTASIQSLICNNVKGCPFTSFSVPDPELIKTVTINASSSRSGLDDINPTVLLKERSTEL
As to conditions: Rimando et al., 2002; cited from earlier work.

Setting [4] is: high dose diet 0.016% (10 mg/kg body weight).

Regarding `COc1cc(/C=C/c2ccc(O)cc2)cc(OC)c1` [pterostilbene, trans-3,5-dimethoxy-4′-hydroxystilbene], the “latency or distance to find the platform between the diet groups” value in assay [1] (Trial 1 or Trial 2, low and high dose vs control diet) is listed as “no differences in latency or distance to find the platform”. The “distance to find the platform, Trial 1 vs Trial 2” value in assay [1] (setting [4]) and in assay [1] (low dose diet 0.004% (2.5 mg/kg body weight)) was “significant (p<0.05) differences in distance” each time. Besides, the “latency to find the platform, Trial 1 vs Trial 2” value is recorded as “significant (p<0.05) difference in latency” in assay [1] (setting [4]) and “tended to improve from Trial 1 to Trial 2” in assay [1] (low dose diet 0.004% (2.5 mg/kg body weight), p=0.09). Moreover, in assay [1] (pterostilbene diets (low and high dose)), the “spatial memory performance compared to control diet fed group” value is listed as “improved spatial memory performance”. For the same compound, the “dopamine release (oxotremorine-enhanced striatal K+-ERDA) among diet groups” value in assay [2] (basal conditions (no H2O2), low and high dose vs control diet, p>0.05) is on record as “no differences among the diet groups”. Also, the “dopamine release (oxotremorine-enhanced striatal K+-ERDA), H2O2-treated vs non-H2O2-treated” value in assay [2] (high dose diet 0.016%) and in assay [2] (low dose diet 0.004%) was “no differences were seen following H2O2 treatment” in each case. Besides, the “inhibition of cyclooxygenase-2” value in assay [3] is recorded as “weak inhibition”.
